Relative viability data for three cell lines are collected here from the supplement of paper PMC10307832.

Common to all, as to assay: relative viability (nuclei count vs DMSO), 5 days (fraction); higher = more cells survive
Compound in assay [1]: C[C@@H](C(=O)N[C@@H](C1CCCCC1)C(=O)N2CCC[C@H]2C(=O)N[C@@H]3[C@@H](CC4=CC=CC=C34)OCC#CC#CCO[C@@H]5CC6=CC=CC=C6[C@@H]5NC(=O)[C@@H]7CCCN7C(=O)[C@H](C8CCCCC8)NC(=O)[C@H](C)NC)NC [AZD5582] + CCNC(=O)c1noc(-c2cc(C(C)C)c(O)cc2O)c1-c1ccc(CN2CCOCC2)cc1 [Luminespib] (partner 0.01 µM)
The method in brief: (§1)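 Dosing by pin tool came one day after lung cancer cell lines were seeded in 1536-well plates, using either one drug or a fixed anchor-drug dose plus five library-drug doses (not always all listed) in √10 steps. After 5 days, nuclei were counted on 4× images. Relative viability is treated-well nuclei count divided by vehicle-well nuclei count, and values are medians of duplicate plates.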

Compound in assay [2]: C[C@@H](C(=O)N[C@@H](C1CCCCC1)C(=O)N2CCC[C@H]2C(=O)N[C@@H]3[C@@H](CC4=CC=CC=C34)OCC#CC#CCO[C@@H]5CC6=CC=CC=C6[C@@H]5NC(=O)[C@@H]7CCCN7C(=O)[C@H](C8CCCCC8)NC(=O)[C@H](C)NC)NC [AZD5582] + C[C@@H](Oc1cc(-c2cnn(C3CCNCC3)c2)cnc1N)c1c(Cl)ccc(F)c1Cl [Crizotinib] (partner 1 µM)
The method in brief:
as §1

Compound in assay [3]: C[C@@H](C(=O)N[C@@H](C1CCCCC1)C(=O)N2CCC[C@H]2C(=O)N[C@@H]3[C@@H](CC4=CC=CC=C34)OCC#CC#CCO[C@@H]5CC6=CC=CC=C6[C@@H]5NC(=O)[C@@H]7CCCN7C(=O)[C@H](C8CCCCC8)NC(=O)[C@H](C)NC)NC [AZD5582] + Nc1nc2[nH]cc(CCc3ccc(C(=O)N[C@@H](CCC(=O)O)C(=O)O)cc3)c2c(=O)[nH]1 [Pemetrexed] (partner 0.2 µM)
The method in brief: as §1

Compound in assay [4]: Cn1nnc2c(C(N)=O)ncn2c1=O [Temozolomide] + COc1cccc2cc(-c3nc([C@H]4CC[C@H](C(=O)O)CC4)n4ncnc(N)c34)[nH]c12 [OSI-027] (partner 0.5 µM)
The method in brief:
as §1

For NCI-H322M, the relative viability is 0.979 in assay [1] (first compound 0.001581 µM); 1.11 in assay [1] (first compound 0.005 µM); 1.44 in assay [1] (first compound 0.05 µM); 0.852 in assay [2] (first compound 0.001581 µM); 0.944 in assay [2] (first compound 0.005 µM); 0.636 in assay [2] (first compound 0.01581 µM). The relative viability in assay [2] (first compound 0.05 µM) amounted to 1.31; in assay [3] (first compound 0.001581 µM), 0.705; in assay [3] (first compound 0.005 µM), 0.732; in assay [3] (first compound 0.01581 µM), 0.659; in assay [3] (first compound 0.05 µM) it was 0.785; in assay [4] (first compound 0.6325 µM), 0.525. Besides, the relative viability in assay [4] (first compound 2 µM) was found to be 0.569; in assay [4] (first compound 6.325 µM) it was 0.54; in assay [4] (first compound 20 µM), 0.433.
Regarding NCI-H661, the relative viability in assay [1] (first compound 0.001581 µM) worked out at 0.898; in assay [1] (first compound 0.005 µM), 0.894; in assay [1] (first compound 0.01581 µM) it was 0.907; in assay [1] (first compound 0.05 µM) it was 0.853; in assay [2] (first compound 0.001581 µM) it was 0.902; in assay [2] (first compound 0.005 µM), 0.845. For the same cell line, the relative viability in assay [2] (first compound 0.01581 µM) worked out at 1.04; in assay [2] (first compound 0.05 µM), 0.892; in assay [3] (first compound 0.001581 µM) it was 0.915; in assay [3] (first compound 0.005 µM), 0.899; in assay [3] (first compound 0.01581 µM) it was 0.98; in assay [3] (first compound 0.05 µM), 0.904. Besides, the relative viability in assay [4] (first compound 0.2 µM) was determined as 0.534; in assay [4] (first compound 0.6325 µM), 0.759; in assay [4] (first compound 2 µM), 0.737; in assay [4] (first compound 6.325 µM) it was 0.716; in assay [4] (first compound 20 µM), 0.55.
As to NCI-H650, the relative viability in assay [1] (first compound 0.001581 µM) came out at 0.704; in assay [1] (first compound 0.005 µM) it was 0.68; in assay [1] (first compound 0.01581 µM), 0.745; in assay [1] (first compound 0.05 µM), 0.636; in assay [2] (first compound 0.001581 µM), 0.581; in assay [2] (first compound 0.005 µM), 0.393. Moreover, the relative viability in assay [2] (first compound 0.01581 µM) is 0.591; in assay [2] (first compound 0.05 µM), 0.401; in assay [3] (first compound 0.001581 µM), 0.843; in assay [3] (first compound 0.005 µM), 0.959; in assay [3] (first compound 0.01581 µM) it was 0.605; in assay [3] (first compound 0.05 µM), 0.644. Further, the relative viability amounted to 0.562 in assay [4] (first compound 0.2 µM); 0.535 in assay [4] (first compound 0.6325 µM); 0.584 in assay [4] (first compound 2 µM); 0.506 in assay [4] (first compound 6.325 µM); 0.534 in assay [4] (first compound 20 µM).
